Reference: patent US4684639A, “Antibacterial penicillins and cephalosporins” (Beecham Group, priority 1983, dated 1987)
Structures can show the parent of a compound that is named as a salt.

Tested on: Klebsiella aerogenes A
Test: MIC against Klebsiella aerogenes A
Assay type: cell-based
Details: not given
Source text: (§1) The antibiotic compounds of the present invention are active against a wide range of gram negative and gram positive organisms including E. coli such as, for example ESS, JT4, JT425 and NCTC 10418; Pseudomonas Spp. such as Ps.aeruginosa for example 10622 and Dalgleish; Serratia marcescens US32; Klebsiella aerogenes A; Enterobacter cloacae N1; P.mirabilis such as, for example C977 and 889; P.morganii, P.rettgeri; B.subtilis; Staph. aureus such as, for example Oxford and Russell; N.catarrhalis 1502; Strep faecalis I; β-Haemolytic Strep CN10. The MIC data included in the following examples is representative of the activity of the compounds of the present invention.

Compound | MIC
CCN1CCN(C(=O)NC(C(=O)N[C@@H]2C(=O)N3[C@@H]2SC(C)(C)[C@@H]3C(=O)O)c2cc(OC(C)=O)c(OC(C)=O)cc2Br)C(=O)C1=O (stereo partly drawn) [Example 10, Sodium 6,β-[D,L-2-(2-bromo-4,5-diacetoxyphenyl)-2-(2,3-dioxo-4-ethylpiperazin-1-ylcarbonylamino)acetamido]penicillanate] | 1 µg/mL
CCN1CCN(C(=O)NC(C(=O)N[C@@H]2C(=O)N3[C@@H]2SC(C)(C)[C@@H]3C(=O)O)c2cc(OC(C)=O)c(OC(C)=O)cc2F)C(=O)C1=O (stereo partly drawn) [Example 7, Sodium 6,β-[D,L-2-(4,5-diacetoxy-2-fluorophenyl)-2-(2,3-dioxo-4-ethylpiperazin-1-ylcarbonylamino)acetamido]penicillanate] | 0.5 µg/mL
CCN1CCN(C(=O)NC(C(=O)N[C@@H]2C(=O)N3[C@@H]2SC(C)(C)[C@@H]3C(=O)O)c2cc(O)c(O)cc2Cl)C(=O)C1=O (stereo partly drawn) [Example 1, Sodium 6,β-[D,L-2-(2-chloro-4,5-dihydroxyphenyl)-2-(2,3-dioxo-4-ethylpiperazin-1-ylcarbonylamino)acetamido penicillanate] | < 0.06 µg/mL
CCN1CCN(C(=O)N[C@@H](C(=O)N[C@@H]2C(=O)N3[C@@H]2SC(C)(C)[C@@H]3C(=O)O)c2cc(O)c(O)cc2F)C(=O)C1=O [Example 11, Sodium 6,β-[D-2-(4,5-dihydroxy-2-fluorophenyl)-2-(2,3-dioxo-4-ethylpiperazin-1-ylcarbonylamino)acetamido]penicillanate] | 1 µg/mL
CCN1CCN(C(=O)N[C@@H](C(=O)N[C@@H]2C(=O)N3[C@@H]2SC(C)(C)[C@@H]3C(=O)O)c2cc(OC(C)=O)c(OC(C)=O)cc2Cl)C(=O)C1=O [Example 9, Sodium 6,β-[D-2-(2-chloro-4,5-diacetoxyphenyl)-2-(2,3-dioxo-4-ethylpiperazin-1-ylcarbonylamino)acetamido]penicillanate] | 0.25 µg/mL
CCN1CCN(C(=O)NC(C(=O)N[C@@H]2C(=O)N3[C@@H](C(=O)O)CS[C@H]23)c2cc(OC(C)=O)c(OC(C)=O)cc2Cl)C(=O)C1=O (stereo partly drawn) [Example 2, Sodium 6,β[D,L-2-(2-chloro-4,5-diacetoxyphenyl)-2-(2,3-dioxo-4-ethylpiperazin-1-ylcarbonylamino)acetamido]bisnorpeniclllanate] | < 0.06 µg/mL

Tested on: Proteus mirabilis 889
Test: MIC against Proteus mirabilis 889
Assay type: cell-based
Details: not given
Source text: as §1

Compound | MIC
CCN1CCN(C(=O)N[C@@H](C(=O)N[C@]2(NC=O)C(=O)N3C(C(=O)O)=C(CSc4nnnn4C)CS[C@@H]32)c2cc(OC(C)=O)c(OC(C)=O)cc2Cl)C(=O)C1=O [Example 15, 7β-[D-2-(2-Chloro-4,5-diacetoxyphenyl)-2-[(4-ethyl-2,3-dioxopiperazin-1-yl)carbonylamino]acetamido]-7α-formamido-3-[(1-methyl-1H-tetrazol-5-yl)thiomethyl]ceph-3-em-4-carboxylic acid, sodium salt] | 0.06 µg/mL
CCN1CCN(C(=O)N[C@@H](C(=O)N[C@]2(NC=O)C(=O)N3[C@@H](C(=O)O)C(C)(C)S[C@@H]32)c2cc(OC(C)=O)c(OC(C)=O)cc2Cl)C(=O)C1=O [Example 6] | < 0.06 µg/mL
CCN1CCN(C(=O)N[C@@H](C(=O)N[C@]2(NC=O)C(=O)N3C(C(=O)O)=C(COC(C)=O)CS[C@@H]32)c2cc(OC(C)=O)c(OC(C)=O)cc2Cl)C(=O)C1=O [Example 14, 7β-[D-2-(2-chloro-4,5-diacetoxyphenyl)-2-[(4-ethyl-2,3-dioxopiperazin-1-yl)carbonylamino]acetamido]-7α-formamidocephalosporanate, sodium salt] | < 0.06 µg/mL
CCN1CCN(C(=O)NC(C(=O)N[C@]2(NC=O)C(=O)N3[C@@H](C(=O)O)C(C)(C)S[C@@H]32)c2cc(OC(C)=O)c(OC(C)=O)cc2Cl)C(=O)C1=O (stereo partly drawn) [Example 5, Sodium 6,β-[D,L-2-(2-chloro-4,5-diacetoxyphenyl)-2-(2,3-dioxo-4-ethylpiperazin-1-ylcarbonylamino)acetamido]-6,α-formamidopenicillanate] | < 0.06 µg/mL
CCN1CCN(C(=O)N[C@@H](C(=O)N[C@]2(NC=O)C(=O)N3[C@@H](C(=O)O)C(C)(C)S[C@@H]32)c2cc(OC(C)=O)c(OC(C)=O)cc2F)C(=O)C1=O [Example 8, Sodium 6,β-[D-2-(4,5-diacetoxy-2-fluorophenyl)-2-(2,3-dioxo-4-ethylpiperazin-1-ylcarbonylamino)acetamido]-6,α-formamidopenicillanate] | < 0.06 µg/mL
CCN1CCN(C(=O)N[C@@H](C(=O)N[C@]2(NC=O)C(=O)N3[C@@H](C(=O)O)C(C)(C)S[C@@H]32)c2cc(O)c(O)cc2F)C(=O)C1=O [Example 16, Sodium 6,β-[D-2-(4,5-dihydroxy-2-fluorophenyl)-2-(2,3-dioxo-4-ethylpiperazin-1-ylcarbonylamino)acetamido]-6,α-formamidopenicillanate] | 0.25 µg/mL
CCN1CCN(C(=O)NC(C(=O)N[C@]2(OC)C(=O)N3[C@@H](C(=O)O)C(C)(C)S[C@@H]32)c2cc(OC(C)=O)c(OC(C)=O)cc2Cl)C(=O)C1=O (stereo partly drawn) [Example 4, Sodium 6,β-[D,L-2-(2-chloro-4,5-diacetoxyphenyl)-2-(2,3-dioxo-4-ethylpiperazin-1-ylcarbonylamino)acetamido]-6,α-methoxypenicillanate] | 4 µg/mL

Tested on: P. mirabilis 899
Test: MIC against P. mirabilis 899
Assay type: cell-based
Details: Proteus mirabilis
Source text: as §1

Compound | MIC
CCN1CCN(C(=O)N[C@@H](C(=O)N[C@]2(NC=O)C(=O)N3C(C(=O)O)=C(COC(C)=O)CS[C@@H]32)c2cc(OC(C)=O)c(OC(C)=O)cc2Br)C(=O)C1=O [Example 13, 7β[D-2-(2-Bromo-4,5-diacetoxyphenyl)-2-[(4-ethyl-2,3-dioxopiperazin-1-yl)carbonylamino]acetamido]-7α-formamidocephalosporanate, sodium salt] | 0.25 µg/mL
CCN1CCN(C(=O)N[C@@H](C(=O)N[C@]2(NC=O)C(=O)N3C(C(=O)O)=C(COC(C)=O)CS[C@@H]32)c2cc(OC(C)=O)c(OC(C)=O)cc2F)C(=O)C1=O [Example 17, 7β[D-2-(4,5-Diacetoxy-2-fluorophenyl)-2-[(4-ethyl-2,3-dioxopiperazin-1-yl)carbonylamino]acetamido]-7α-formamidocephalosporanate, sodium salt] | 0.5 µg/mL
